The values that follow come from US10202379B2, “Substituted polycyclic carbamoyl pyridone derivative prodrug” (priority 2010, dated 2019).

Like-named read-outs stand apart in the source and are kept apart here.

By IC50 is commonly meant the midpoint of a concentration-inhibition curve. A word on the EC50: it is the concentration needed to bring the measured effect to its halfway point.

The target of assay [1] is Cap-dependant Endonuclease (CEN) (RNP fraction, PB1-PB2-PA complex) (Influenza A virus (strain A/Wilson-Smith/1933 H1N1) (Influenza A virus (strain A/WS/1933 H1N1)), UniProt P15659). It counts as biochemical, influenza A/WSN/33 virus.
Another assay deals with influenza virus. In words: microbe, parasite or virus in culture. Conditions: MDBK or MDCK cells, 3 days, WST-8. It counts as cell-based. (Tetrazolium dyes change colour on reduction, which living cells bring about.)
The mark [2] stands for this setting: parent compounds (Reference examples), room temperature, 60 minutes.
Setting [3] is: unidentified influenza virus, 72 h, read-out: CPE EC50, parent compounds (Reference examples).
Where [4] appears, read: parent compounds (Reference examples), read-out: CPE EC50.

As to `C[C@@H](N1CN([C@@H]2c3ccccc3CCc3c(F)cccc32)n2ccc(=O)c(O)c2C1=O)C(F)(F)F` [Reference example 634], the IC50 in assay [1] (setting [2]) was 103 nM. Also, in the assay with influenza virus (setting [3]), the EC50 was 17 nM.

In the case of `C[C@@H](N1CN([C@@H](c2ccccc2)c2ccccc2Cl)n2ccc(=O)c(O)c2C1=O)C(F)(F)F` [Reference example 651], the IC50 in assay [1] (setting [2]) came to 56 nM. Also, in the assay on influenza virus (setting [3]), the EC50 was 13 nM.

Molecule `COC[C@H](C)N1C(=O)c2c(O)c(=O)ccn2N(C2c3ccccc3CCc3ccccc32)C1CCN(C)C` (some centres unmarked) [Reference example 644] gave an IC50 in assay [1] of 238 nM. For the same molecule, the EC50 in the assay with influenza virus (setting [3]) is 60 nM.

For the molecule `Cc1cn2c(c(O)c1=O)C(=O)N([C@H](C)C(F)(F)F)CN2[C@@H]1c2ccccc2SCc2c1ccc(F)c2F` [compound 704], in assay [1] (setting [2]), the IC50 was determined as 11.1 nM. In the assay with influenza virus (setting [3]), the EC50 is 3.5 nM.

Consider `C[C@@H](N1CN([C@@H]2c3ccc(F)cc3SCc3cccc(F)c32)n2ccc(=O)c(O)c2C1=O)C(F)(F)F` [Reference example 598], for which the IC50 in assay [1] (setting [2]) amounted to 16 nM. For the same molecule, the EC50 in the assay on influenza virus (setting [3]) is 5 nM.

`C[C@@H](N1CN([C@@H]2c3ccc(F)cc3SCc3cccc(Cl)c32)n2ccc(=O)c(O)c2C1=O)C(F)(F)F` [compound 772]: in assay [1] (setting [2]), the half-inhibitory concentration (IC50) is 5.22 nM. Moreover, in the assay on influenza virus (setting [3]), the EC50 was determined as 3.68 nM.

For the molecule `COCCCC1N(CC(F)(F)F)C(=O)c2c(O)c(=O)ccn2N1C1c2ccc(F)cc2CCc2cc(F)ccc21` (centres unmarked) [Reference example 643], in assay [1] (setting [2]), the IC50 was 163 nM. Also, in the assay with influenza virus (setting [3]), the EC50 stood at 132 nM.

Consider `COCCCC1N(CC(F)(F)F)C(=O)c2c(O)c(=O)ccn2N1C1c2ccccc2CCc2ccccc21` (centres unmarked) [Reference example 642], for which the IC50 in assay [1] was 256 nM. Further, the EC50 in the assay on influenza virus (setting [3]) is 94 nM.

`C[C@@H](N1CN([C@H]2c3cccc(F)c3SCc3cccc(Cl)c32)n2ccc(=O)c(O)c2C1=O)C(F)(F)F` [Reference example 622] had an IC50 in assay [1] of 89 nM. The EC50 with influenza virus (setting [3]) was found to be 12 nM.

Take `C[C@@H](N1CN([C@H]2c3cc(F)ccc3CSc3c(Cl)cccc32)n2ccc(=O)c(O)c2C1=O)C(F)(F)F` [Reference example 658]: in assay [1] (setting [2]), the IC50 was 53 nM. In the assay with influenza virus (setting [3]), the half-maximal effective concentration (EC50) worked out at 19 nM.

In the case of `C[C@@H](N1CN([C@@H]2c3cccc(F)c3SCc3cccc(F)c32)n2ccc(=O)c(O)c2C1=O)C(F)(F)F` [Reference example 599], in assay [1] (setting [2]), the IC50 was determined as 25 nM. The EC50 with influenza virus (setting [3]) stood at 8 nM.

As to `C[C@@H]1Sc2ccccc2[C@@H](N2CN([C@H](C)C(F)(F)F)C(=O)c3c(O)c(=O)ccn32)c2c(Cl)cccc21` [compound 748], the IC50 in assay [1] (setting [2]) was determined as 24.2 nM. Also, in the assay on influenza virus (setting [3]), the EC50 is 9.14 nM.

In assay [1], `COCCC(=O)Oc1c2n(ccc1=O)N([C@@H]1c3ccccc3SCc3c(Cl)cccc31)CN([C@H](C)C(F)(F)F)C2=O` [Example 108] gave a concentration for half-maximal inhibition (IC50) of 37 nM. Also, in the assay on influenza virus (setting [4]), the EC50 came out at 19 nM.

Regarding `C[C@@H](N1CN([C@@H]2c3ccccc3SCc3cccc(C4CC4)c32)n2ccc(=O)c(O)c2C1=O)C(F)(F)F` [compound 691], in assay [1] (setting [2]), the IC50 was 3.67 nM. Further, in the assay with influenza virus (setting [3]), the half-maximal effective concentration (EC50) turned out to be 4.05 nM.

In the case of `Cc1cccc2c1[C@@H](N1CN([C@H](C)C(F)(F)F)C(=O)c3c(O)c(=O)ccn31)c1ccccc1SC2` [Reference example 662], the IC50 in assay [1] (setting [2]) turned out to be 316 nM. In the assay on influenza virus (setting [3]), the half-maximal effective concentration (EC50) was 22 nM.

`C[C@@H](N1CN([C@@H]2c3ccccc3SCc3c(Cl)cccc32)n2ccc(=O)c(OCOC(=O)NCCN)c2C1=O)C(F)(F)F` [Example 178]: the IC50 in assay [1] was 61 nM. The EC50 in the assay on influenza virus (setting [4]) came to 75 nM.

With `C[C@@H](N1CN([C@@H]2c3ccccc3SCc3cccc(Cl)c32)n2cc(B(O)O)c(=O)c(O)c2C1=O)C(F)(F)F` [compound 707], in assay [1] (setting [2]), the IC50 stood at 40.2 nM. The EC50 with influenza virus (setting [3]) was determined as 3.05 nM.

Regarding `Cc1cccc2c1[C@H](N1CN([C@H](C)C(F)(F)F)C(=O)c3c(O)c(=O)ccn31)c1ccccc1SC2` [Reference example 665], the IC50 in assay [1] (setting [2]) turned out to be 18 nM. For the same molecule, in the assay on influenza virus (setting [3]), the concentration for a half-maximal effect (EC50) is 5 nM.

For `C[C@@H](N1CN([C@H]2c3ccc(F)cc3CSc3ccccc32)n2cc(B(O)O)c(=O)c(O)c2C1=O)C(F)(F)F` [compound 708], in assay [1] (setting [2]), the IC50 was found to be 46.5 nM. Moreover, the concentration for a half-maximal effect (EC50) in the assay with influenza virus (setting [3]) is 8.49 nM.

Consider `C[C@@H](N1CN(C2c3cccc(F)c3CCc3c(F)cccc32)n2ccc(=O)c(O)c2C1=O)C(F)(F)F` [Reference example 638], for which the IC50 in assay [1] (setting [2]) worked out at 130 nM. Further, the EC50 in the assay with influenza virus (setting [3]) was 21 nM.

On to `C[C@@H](N1CN([C@@H]2c3ccccc3SCc3cccc(C(F)(F)F)c32)n2ccc(=O)c(O)c2C1=O)C(F)(F)F` [compound 741], for which the IC50 in assay [1] (setting [2]) amounted to 21 nM. In addition, in the assay on influenza virus (setting [3]), the EC50 is 3.51 nM.

Turning to `C[C@@H](N1CN(C2c3ccccc3CCc3cc(F)c(F)cc32)n2ccc(=O)c(O)c2C1=O)C(F)(F)F` (some centres unmarked) [Reference example 636], the concentration for half-maximal inhibition (IC50) in assay [1] (setting [2]) worked out at 74 nM. The EC50 in the assay with influenza virus (setting [3]) came out at 15 nM.

Turning to `C[C@@H](N1CN(C2c3ccccc3CCc3cccc(Cl)c32)n2ccc(=O)c(O)c2C1=O)C(F)(F)F` (some centres unmarked) [compound 686], the 50% inhibitory concentration (IC50) in assay [1] (setting [2]) turned out to be 15.1 nM. For the same molecule, the EC50 with influenza virus (setting [3]) was 7.86 nM.

Regarding `C[C@@H](CO)N1CN(C2c3ccccc3CSc3ccccc32)n2ccc(=O)c(O)c2C1=O` (some centres unmarked) [Reference example 375], the 50% inhibitory concentration (IC50) in assay [1] (setting [2]) was determined as 37 nM. In the assay with influenza virus (setting [3]), the EC50 came to 73 nM.

The molecule `C[C@@H](N1CN([C@@H]2c3cccc(F)c3SCc3cccc(Cl)c32)n2ccc(=O)c(O)c2C1=O)C(F)(F)F` [Reference example 621] showed an IC50 in assay [1] of 6 nM. Also, in the assay on influenza virus (setting [3]), the EC50 turned out to be 2 nM.

Regarding `C[C@@H](N1CN([C@@H]2c3cccc(F)c3CSc3c(Cl)cccc32)n2ccc(=O)c(O)c2C1=O)C(F)(F)F` [Reference example 597], in assay [1], half-maximal inhibition (IC50) was put at 339 nM. Further, the EC50 in the assay on influenza virus (setting [3]) came out at 49 nM.

`CC(=O)c1cn2c(c(O)c1=O)C(=O)N([C@H](C)C(F)(F)F)CN2[C@@H]1c2ccccc2SCc2c1ccc(F)c2F` [compound 706]: the IC50 in assay [1] (setting [2]) turned out to be 18.6 nM. Also, the EC50 in the assay with influenza virus (setting [3]) was 7.19 nM.

Take `C[C@@H](N1CN([C@@H]2c3ccccc3SCc3c2ccc(F)c3F)n2cc(B(O)O)c(=O)c(O)c2C1=O)C(F)(F)F` [compound 709]: the concentration for half-maximal inhibition (IC50) in assay [1] (setting [2]) turned out to be 34.3 nM. For the same molecule, the EC50 in the assay with influenza virus (setting [3]) came to 7.09 nM.

In the case of `COCC[C@@H]1N([C@H](C)C(F)(F)F)C(=O)c2c(O)c(=O)ccn2N1C1c2ccccc2CCc2ccccc21` [Reference example 645], the IC50 in assay [1] (setting [2]) came to 105 nM. In addition, in the assay with influenza virus (setting [3]), the EC50 was determined as 16 nM.

For `Cc1cccc2c1CSc1c(F)cccc1[C@H]2N1CN([C@H](C)C(F)(F)F)C(=O)c2c(O)c(=O)ccn21` [Reference example 617], in assay [1] (setting [2]), the IC50 was 53 nM. Further, the EC50 in the assay with influenza virus (setting [3]) was 17 nM.

As for `CCc1cccc2c1[C@H](N1CN([C@H](C)C(F)(F)F)C(=O)c3c(O)c(=O)ccn31)c1cccc(F)c1SC2` [compound 724], in assay [1] (setting [2]), the IC50 is 5.07 nM. In addition, the EC50 with influenza virus (setting [3]) was found to be 6.33 nM.

As to `C[C@@H](N1CN([C@@H]2c3ccccc3SCc3cccc(Cl)c32)n2cc(Cl)c(=O)c(O)c2C1=O)C(F)(F)F` [compound 762], the IC50 in assay [1] (setting [2]) came out at 31.5 nM. Also, in the assay with influenza virus (setting [3]), the EC50 came out at 5.9 nM.

With `C[C@@H](N1CN([C@@H]2c3ccccc3SCc3cccc(N(C)C)c32)n2ccc(=O)c(O)c2C1=O)C(F)(F)F` [compound 752], the concentration for half-maximal inhibition (IC50) in assay [1] (setting [2]) was 14.2 nM. Also, the 50% effective concentration (EC50) in the assay on influenza virus (setting [3]) amounted to 3.12 nM.

In the case of `CC(=O)c1cn2c(c(O)c1=O)C(=O)N([C@H](C)C(F)(F)F)CN2[C@H]1c2cc(F)c(F)cc2CSc2ccccc21` [compound 692], in assay [1] (setting [2]), the IC50 was 36.9 nM. In the assay on influenza virus (setting [3]), the EC50 stood at 9.64 nM.
